# Assay results reported in ChEMBL document CHEMBL1201862, “PubChem BioAssay data set” (2004).
#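 The compound was tested at five concentrations on cells cultured in 96-well plates, with a 48-hour exposure period. GI50 is the concentration that inhibits growth by half.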 Active and inactive are the calls of the source. Rule as the data show it: active = GI50 up to about 1.1 µM and inactive = higher.
# Tests used:
# Assay in all cases: NCI anticancer screen, dose series, 48 h
# CAKI-1 = system: CAKI-1
# K562 = system: K562
# A498 = system: A498
# KM-20L2 = system: KM-20L2
# RPMI-8226 = system: RPMI-8226
# DMS-273 = system: DMS-273
# SK-OV-3 = system: SK-OV-3
# IGROV-1 = system: IGROV-1
# SF-539 = system: SF-539
# OVCAR-8 = system: OVCAR-8
# SN12C = system: SN12C
# A549 = system: A549
# LXFL 529 = system: LXFL 529
# HCT-116 = system: HCT-116
# LOX IMVI = system: LOX IMVI
# RXF 393 = system: RXF 393
# TK-10 = system: TK-10
# HT-29 = system: HT-29
# SK-MEL-28 = system: SK-MEL-28
# UACC-257 = system: UACC-257
# UACC-62 = system: UACC-62
# COLO 205 = system: COLO 205
# ACHN = system: ACHN
# CCRF-CEM = system: CCRF-CEM
# DLD-1 = system: DLD-1
# SK-MEL-5 = system: SK-MEL-5
# NCI-H23 = system: NCI-H23
# 786-0 = system: 786-0
# SW-620 = system: SW-620
# HL-60 = system: HL-60
# MOLT-4 = system: MOLT-4
# EKVX = system: EKVX
# OVCAR-4 = system: OVCAR-4
# OVCAR-3 = system: OVCAR-3
# NCI-H460 = system: NCI-H460
# HCT-15 = system: HCT-15
# U-251 = system: U-251
# SNB-19 = system: SNB-19
# SF-295 = system: SF-295
# M19-MEL = system: M19-MEL
# HOP-62 = system: HOP-62
# HCC 2998 = system: HCC 2998
# XF498 = system: XF498
# SNB-75 = system: SNB-75
# HOP-18 = system: HOP-18
# M14 = system: M14
# NCI-H522 = system: NCI-H522
# UO-31 = system: UO-31
# OVCAR-5 = system: OVCAR-5
# NCI-H226 = system: NCI-H226
# KM12 = system: KM12
# SNB-78 = system: SNB-78
# SK-MEL-2 = system: SK-MEL-2
# SF-268 = system: SF-268
# HOP-92 = system: HOP-92
# SR = system: SR
# DMS-114 = system: DMS-114
# Malme-3M = system: Malme-3M
smiles,measurement,setting,value
CC(C)(C)c1cc(COc2c3sc(=S)sc3c(OCc3cc(C(C)(C)C)cc(C(C)(C)C)c3)c3sc(=S)sc23)cc(C(C)(C)C)c1,GI50,CAKI-1,> 100 µM (inactive)
same,GI50,K562,> 100 µM (inactive)
same,GI50,A498,> 100 µM (inactive)
same,GI50,KM-20L2,> 100 µM (inactive)
same,GI50,RPMI-8226,> 100 µM (inactive)
same,GI50,DMS-273,> 100 µM (inactive)
same,GI50,SK-OV-3,> 100 µM (inactive)
same,GI50,IGROV-1,> 100 µM (inactive)
same,GI50,SF-539,> 100 µM (inactive)
same,GI50,OVCAR-8,> 100 µM (inactive)
same,GI50,SN12C,> 100 µM (inactive)
same,GI50,A549,> 100 µM (inactive)
same,GI50,LXFL 529,> 100 µM (inactive)
same,GI50,HCT-116,> 100 µM (inactive)
same,GI50,LOX IMVI,> 100 µM (inactive)
same,GI50,RXF 393,> 100 µM (inactive)
same,GI50,TK-10,> 100 µM (inactive)
same,GI50,HT-29,> 100 µM (inactive)
same,GI50,SK-MEL-28,> 100 µM (inactive)
same,GI50,UACC-257,> 100 µM (inactive)
same,GI50,UACC-62,> 100 µM (inactive)
same,GI50,COLO 205,> 100 µM (inactive)
same,GI50,ACHN,> 100 µM (inactive)
same,GI50,CCRF-CEM,> 100 µM (inactive)
same,GI50,DLD-1,> 100 µM (inactive)
same,GI50,SK-MEL-5,> 100 µM (inactive)
same,GI50,NCI-H23,> 100 µM (inactive)
same,GI50,786-0,> 100 µM (inactive)
same,GI50,SW-620,> 100 µM (inactive)
same,GI50,HL-60,> 100 µM (inactive)
same,GI50,MOLT-4,> 100 µM (inactive)
same,GI50,EKVX,> 100 µM (inactive)
same,GI50,OVCAR-4,> 100 µM (inactive)
same,GI50,OVCAR-3,> 100 µM (inactive)
same,GI50,NCI-H460,> 100 µM (inactive)
same,GI50,HCT-15,> 100 µM
same,GI50,U-251,> 100 µM (inactive)
same,GI50,SNB-19,> 100 µM (inactive)
same,GI50,SF-295,> 100 µM (inactive)
same,GI50,M19-MEL,> 100 µM (inactive)
same,GI50,HOP-62,> 100 µM (inactive)
same,GI50,HCC 2998,> 100 µM (inactive)
same,GI50,XF498,> 100 µM (inactive)
same,GI50,SNB-75,> 100 µM (inactive)
same,GI50,HOP-18,> 100 µM (inactive)
same,GI50,M14,> 100 µM (inactive)
CC(C)C(Sc1nc(-c2ccccc2)c(-c2ccccc2)[nH]1)C(=O)N/N=C/c1ccc([N+](=O)[O-])cc1 (stereo not given),GI50,CAKI-1,21.1 µM (inactive)
same,GI50,NCI-H522,15.3 µM (inactive)
same,GI50,A498,20.5 µM (inactive)
same,GI50,KM-20L2,15.1 µM (inactive)
same,GI50,RPMI-8226,11.5 µM (inactive)
same,GI50,UO-31,11.3 µM (inactive)
same,GI50,DMS-273,12 µM (inactive)
same,GI50,SK-OV-3,22.8 µM (inactive)
same,GI50,OVCAR-5,20.1 µM (inactive)
same,GI50,IGROV-1,18.2 µM (inactive)
same,GI50,NCI-H226,17.9 µM (inactive)
same,GI50,SF-539,20.5 µM (inactive)
same,GI50,OVCAR-8,29.1 µM (inactive)
same,GI50,SN12C,12.5 µM (inactive)
same,GI50,A549,27.3 µM (inactive)
same,GI50,LXFL 529,9.98 µM (inactive)
same,GI50,HCT-116,14.5 µM (inactive)
same,GI50,LOX IMVI,11.6 µM (inactive)
same,GI50,TK-10,30.1 µM (inactive)
same,GI50,HT-29,6.44 µM (inactive)
same,GI50,SK-MEL-28,15.5 µM (inactive)
same,GI50,UACC-257,12.1 µM (inactive)
same,GI50,UACC-62,15.6 µM (inactive)
same,GI50,COLO 205,11.3 µM (inactive)
same,GI50,KM12,10.9 µM (inactive)
same,GI50,ACHN,15.6 µM (inactive)
same,GI50,CCRF-CEM,4.05 µM (inactive)
same,GI50,DLD-1,30.8 µM (inactive)
same,GI50,SNB-78,24.8 µM (inactive)
same,GI50,SK-MEL-5,9.23 µM (inactive)
same,GI50,NCI-H23,16.7 µM (inactive)
same,GI50,786-0,14.3 µM (inactive)
same,GI50,SW-620,14.3 µM (inactive)
same,GI50,HL-60,13.6 µM (inactive)
same,GI50,MOLT-4,1.93 µM (inactive)
same,GI50,EKVX,20.4 µM (inactive)
same,GI50,SK-MEL-2,12.5 µM (inactive)
same,GI50,OVCAR-4,16 µM (inactive)
same,GI50,OVCAR-3,7.19 µM (inactive)
same,GI50,NCI-H460,9.46 µM (inactive)
same,GI50,SF-268,18.5 µM (inactive)
same,GI50,HCT-15,12.5 µM
same,GI50,U-251,14.6 µM (inactive)
same,GI50,SNB-19,17.3 µM (inactive)
same,GI50,SF-295,15.8 µM (inactive)
same,GI50,HOP-92,10.4 µM (inactive)
same,GI50,M19-MEL,11.6 µM (inactive)
same,GI50,HOP-62,20.8 µM (inactive)
same,GI50,XF498,16.2 µM (inactive)
same,GI50,SNB-75,18.8 µM (inactive)
same,GI50,SR,1.12 µM (inactive)
same,GI50,DMS-114,25.9 µM (inactive)
same,GI50,M14,7.33 µM (inactive)
same,GI50,Malme-3M,13.9 µM (inactive)
